Publication PMC5034043 (The Journal of Biological Chemistry, 2016)
Entries after “also recorded” stand apart in the source; their conditions may differ.

Legend:
[1] = system: GABAA receptor subunits; assay: Western blotting of streptavidin-captured GABAA receptor subunits with ligand protection; assay type: binding, mouse; conditions: AziPm-click (1) 10 μM, protecting ligand 100 μM, UV irradiation; n = 4
Procedure: (§1) Synaptosomes were resuspended to 1 mg of protein/ml in HEPES buffer medium (in mM: 140 NaCl, 5 KCl, 5 NaHCO3, 1.2 NaH2PO4, 1 MgCl2, 10 glucose, and 10 HEPES (pH 7.4)). […] The samples were allowed to equilibrate for 5 min before being transferred to a parafilm-sealed 1-mm path length quartz cuvette. The sample was then irradiated for 20 min at a peak bandwidth of 350 nm (Rayonet RPR-3500 lamp) ∼6 cm from the light source. Non-irradiated samples were left in the dark at ambient temperature (22–25 °C) for 20 min. All remaining procedures were conducted with restricted light exposure.
To 750 μg of photolabeled or control synaptosome samples, 40 μl of 10% SDS and 2 μl of 5 mM DTT in water were added. Samples were then vortexed, heated for 10 min at 65 °C, and then briefly cooled. Final concentrations of 150 μM azide-biotin (Click Chemistry Tools), 2 mM tris(3-hydroxypropyltriazolylmethyl)amine (Sigma), 1 mM ascorbic acid (Sigma), and 1 mM CuSO4·5H2O (Sigma) were added to each sample and vortexed vigorously. The samples were left in the dark at ambient temperature (22–25 °C) for 1 h with mild agitation. Directly to each sample 4× volume chilled methanol, 1.5× chilled chloroform, and 3× chilled double distilled H2O were added. Samples were vortexed vigorously and centrifuged at 1,400 × g for 30 min at 4 °C. […]

[2] = system: α1β2γ2 GABAA receptors; conditions: heterologously expressed receptors; cited from earlier work
[3] = at even 100-fold higher concentrations than propofol; cited from earlier work
[4] = system: alkylphenol-binding proteins within synaptosomes; assay: Fluorescent profiling: protection from AziPm-click (1) photolabeling of synaptosomes; parameters: species or system mouse; conditions: propofol 75–375 μM; ketamine 150–450 μM; triplicate
Procedure: as §1

Row | SMILES | protection of GABAA receptor α and β subunits from AziPm-click (1) capture [1] | activity on GABAA receptor [2] | immobilization [3] | fluorescent labeling of synaptosomal proteins by AziPm-click (1) in presence of protecting ligand [4]
1 | CC(C)c1cccc(C(C)C)c1F [fropofol, 2-fluoro-1,3-diisopropylbenzene] | unable to protect | did not modulate or disrupt propofol potentiation; also recorded: no activity | did not cause immobilization | 
2 | CNC1(c2ccccc2Cl)CCCCC1=O (stereo not shown) [ketamine] |  |  |  | no changes in fluorescence intensity
